Measurements reported in patent US20260151467A1, “METHOD FOR TREATING CANCER” (THE CHILDREN'S MEDICAL CENTER CORPORATION, priority 2018, published 2026).

Legend:
CCRF-CEM cells [1] = assay: Viable cell counts (trypan blue) of CCRF-CEM cells treated with asparaginase and other agents; format: cell-based, human
Description: Cells (25,000 per well) were seeded in 100 μl of complete growth medium in 96-well plates and incubated with chemotherapeutic agents or vehicle. T-ALL cells were split every 48 hours in a 1:5 ratio. Briefly, 20 μl of cells were mixed with 80 μl fresh culture medium, supplemented with vehicle or chemotherapeutic drugs at the indicated doses. AML cells were split every 72 hours as described above. Cell viability was assessed by counting viable cells based on trypan blue vital dye staining (Invitrogen), according to the manufacturer's instructions. Chemotherapeutic drugs included: PEG-asparaginase (“oncaspar”, Shire, Lexington, MA), dexamethasone (Sigma-Aldrich), vincristine (Selleckchem, Houston, TX), doxorubicin (Sigma-Aldrich), 6-mercaptopurine (Abcam, Cambridge, UK), CHIR99021 (Selleckchem), bortezomib (Selleckchem), rapamycin (Selleckchem), RAD001 (Selleckchem), AZD2014 (Selleckchem), and Wnt3A (R&D systems, Minneapolis, MN). BRD0705 and […] were synthesized as described^15. Caspase 3/7 activity was assessed using the Caspase Glo 3/7 Assay (Promega, Madison, WI) according to the manufacturer's instructions.

CCRF-CEM cells [2] = assay: Assessment of cell size by flow cytometry (FSC-H), CCRF-CEM; format: cell-based, human; details: asparaginase 10 U/L, 48 hours
Description: Assessment of cell size. Cells (400,000 per well) were plated in 1 ml of complete growth medium, containing a final concentration of 10 U/L asparaginase in a 24-well format. After 48 hours of treatment, forward scattering (FSC-H) was assessed by flow cytometry.

[3] = tested on: asparaginase-resistant T-ALL patient-derived xenograft; assay: T-ALL patient-derived xenograft in NRG mice, survival; format: in vivo, mouse
Description: Mice were exposed to a sub-lethal dose of radiation (4.5 Gy) and subsequently injected with human leukemia cells. All injections were performed by tail vein injection. Blood collections were performed to monitor leukemia onset in mice injected with leukemic cells, which was assessed by staining for human CD45 expression using anti-human CD45-PE-Cy7 (1:400, BD #560915) antibody staining. As soon as leukemia engraftment was confirmed based on ≥5% human leukemia cells in the peripheral blood, treatment of mice was begun. Asparaginase (1,000 U/kg) or PBS were injected by tail vein injection as a single dose on day 1 of drug treatment, and BRD0705 (15 mg/kg) or vehicle were given every 12 hours for 12 days by oral gavage. Vehicle was formulated as previously described.^15 Mice were anesthetized with isoflurane (Patterson Veterinary, Greeley, CO) prior to gavage. After start of treatment, body weight was monitored every third day. To assess bilirubin levels, mandibular blood vein collection was performed, and bilirubin levels were measured in the Boston Children's Hospital clinical laboratory. The primary endpoint of this experiment was survival. Mice were euthanized as soon as they developed weight loss greater than 15% or signs/symptoms of progressing disease. Post-mortem analysis of leukemic burden was performed by extracting bone marrow cells, which were filtered through a […] mesh filter and red blood cells were lysed using the BD Biosciences Red Blood Cell Lysis reagent (BD #555899). Isolated bone marrow cells were stained for assessment of leukemic burden using following antibodies from BD Biosciences: Anti-human CD4-APC-Cy7 (1:100, BD #561839) and anti-human CD8-PerCP-Cy5.5 (1:100, BD #560662).

HCT-15 cells [4] = assay: Chemotherapy response of colon cancer cell lines (trypan blue counts), HCT-15; format: cell-based, human; details: 10 days
Description: (§1) Cells (100,000 per well) were seeded in […] of complete growth medium in 12-well plates and incubated with chemotherapeutic agents or vehicle. Cells were split every 48 hours and cell viability was assessed by counting viable cells based on trypan blue vital dye staining (Invitrogen), according to the manufacturer's instructions. Chemotherapeutic drugs included: asparaginase (pegaspargase, Shire, Lexington, MA), CHIR99021 (Selleckchem), recombinant human Wnt3A protein (R&D systems, Minneapolis, MN) and recombinant human R-Spondin 3 protein (R&D systems, Minneapolis, MN). BRD0705 and BRD3731 were synthesized as described (Wagner et al., 2018). Caspase 3/7 activity was assessed using the Caspase Glo 3/7 Assay (Promega, Madison, WI) according to the manufacturer's instructions.

SW-480 cells = assay: Chemotherapy response of colon cancer cell lines (trypan blue counts), SW-480; format: cell-based, human; details: 10 days
Description: as §1

Rspo3 fusion organoids = assay: Chemotherapy response in mouse intestinal organoids, Rspo3 fusion; format: cell-based; details: asparaginase 100 U/L, 10 days
Description: (§2) For assessment of chemotherapy response in mouse intestinal organoids, Apc-deficient and Rspo3 fusion organoids were cultured in basal organoid medium (medium not containing murine Wnt3A, murine Noggin and human R-spondin1 protein). A full 0.95 cm2 well of organoids was split into new wells, aiming to obtain approximately 25 organoids per well. Organoids were split according to previously published protocols (O'Rourke et al., 2016). Matrigel and basal organoid culture medium were supplemented with vehicle or chemotherapeutic agents, and split every 48 hours. After 10 days in culture, total organoid numbers per wells were counted by light microscopy. Microscopy was performed using an 100× objective on an Axio Imager A1 microscope (Zeiss, Oberkochen, Germany), with images captured using a CV-A10 digital camera (Jai, Yokohama, Japan) and Cytovision software (Leica Biosystems, Wetzlar, Germany).
(§3) Organoids touching the edge of a well were excluded from counting. Images were taken from a representative of three independent experiments and analyzed with ImageJ Software (Schneider et al., 2012).

Apc-deficient organoids = assay: Chemotherapy response in mouse intestinal organoids, Apc-deficient; format: cell-based; details: asparaginase 100 U/L, BRD0705 1 μM or both, 10 days
Description: as §2, §3

HCT-15 cells [5] = assay: Assessment of cell size by flow cytometry (FSC-H), HCT-15; format: cell-based, human; details: asparaginase 100 U/L (FIG. 18A)
Description: […] After 48 hours of treatment, forward scatter height (FSC-H) was assessed by flow cytometry on a Beckton-Dickinson LSR-II instrument.

Rspo3 fusion tumors = assay: Subcutaneous Rspo3 fusion organoid tumors in nude mice; format: in vivo, mouse; details: single dose of asparaginase
Description: (§4) For implantation of APC mutant human CRC PDX, patient tumor material was collected in PBS and kept on wet ice for engraftment within 24 h after resection. Upon arrival, necrotic and supporting tissues were carefully removed using a surgical blade. Approximately 1 mm×1 mm tissue fragments were implanted subcutaneously into the flank region of male nude mice, as described (Bullman et al., 2017). For injection of intestinal organoids (Rspo3; p53; Kras, or Apc; p53; Kras), per mouse one full […] well of organoids was injected subcutaneously.
(§5) As soon as tumors reached a volume of approximately 150 mm3, treatment of mice was begun. For the APC mutant human CRC PDX, a single dose of asparaginase (1,000 U/kg) or PBS was injected by tail vein injection on day 1 of treatment, and BRD0705 (15 mg/kg) or vehicle was given every 12 hours for 21 days by oral gavage. Vehicle was formulated as previously described (Wagner et al., 2018).
(§6) After start of treatment, body weight and tumor size were evaluated every other day. Tumor size was assessed by caliper measurements and the approximate volume of the mass was calculated using the formula (l×w×w)×(π/6), where 1 is the major tumor axis and w is the minor tumor axis.

Apc-deficient tumors = assay: Subcutaneous Apc-deficient organoid tumors in nude mice; format: in vivo, mouse; details: single dose of asparaginase
Description: as §4, §5, §6

[6] = Body weight of nude mice injected with organoids; format: in vivo; details: single dose of asparaginase, FIG. 19A
Description: as §6

[7] = tested on: APC-mutant CRC patient-derived xenograft; assay: APC-mutant human CRC patient-derived xenograft in nude mice; format: in vivo, mouse; details: asparaginase 1000 U/kg×1 dose; BRD0705 every 12 hours×21 days
Description: as §4
As soon as tumors reached a volume of approximately 150 mm3, treatment of mice was begun. […] Vehicle was formulated as previously described (Wagner et al., 2018).
as §6

CRC = details: Clarkson 1970; Ohnuma 1970; Wilson 1975; cited from earlier work

## asparaginase
CCRF-CEM cells [1]; 10 U/L dose
  toxicity of asparaginase: lacked detectable toxicity
CCRF-CEM cells [1]; FIG. 5: 100 U/L asparaginase, 48 hours
  asparaginase sensitivity of the cell line (viability): asparaginase-resistant
CCRF-CEM cells [2]
  cell size (FSC-H): measurable decrease in cell size
[3]; FIG. 4D, Kaplan-Meier
  difference in survival between vehicle and monotherapy groups (log-rank): not significant
[3]; asparaginase 1,000 U/kg i.v. single dose, BRD0705 15 mg/kg oral gavage every 12 hours for 12 days
  efficacy against xenograft (survival): highly resistant
HCT-15 cells [4]
  response to asparaginase monotherapy: refractory
SW-480 cells
  response to asparaginase monotherapy: refractory
Rspo3 fusion organoids
  toxicity to organoids (viable organoid count): highly toxic
Apc-deficient organoids
  toxicity to organoids (viable organoid count): little activity
HCT-15 cells [5]
  cell size (FSC-H): significantly decreased cell size
Rspo3 fusion tumors
  therapeutic activity: significant therapeutic activity
Rspo3 fusion tumors; FIG. 16B
  disease progression (tumor volume): markedly delayed disease progression
Rspo3 fusion tumors; FIG. 16C
  tumor regression: induced tumor regression in most treated mice
Rspo3 fusion tumors; FIG. 16D
  progression-free survival: prolonged progression-free survival
Apc-deficient tumors
  effect on tumors: little effect
[6]
  weight loss: without inducing appreciable weight loss
[7]
  activity on tumor growth: no activity
CRC
  activity in unselected patients with CRC: little activity
